Data taken from patent publication US11613531B2, “Inhibitors of RHO associated coiled-coil containing protein kinase” (Kadmon Corporation, LLC, priority 2017, dated 2023).

Test system: Histamine-induced vascular permeability in mice
Experiment: Histamine-induced vascular permeability model
Format: in vivo
Settings: single oral dose 1 hr. prior to histamine injection
Description: FIG. 12a. ROCK inhibition stabilizes the endothelial barrier function in a histamine-induced vascular permeability model in mice. Representative images of Evan's Blue dye extravasation induced by histamine in the skin of ROCK inhibitor and vehicle treated mice, relative to the control compound (salbutamol). ROCK inhibitor induces vascular barrier stabilization following single dose of compound administered 1 hr. prior to histamine injection.
FIG. 12b. Quantitation of the decrease in spot area size and Evan's Blue dye amount in the skin of ROCK inhibitor treated mice following the induction of capillary leakage by histamine injection.
Histamine-Induced Vascular Permeability Model in Mice […]
20 minutes post challenge with histamine, animals were euthanized. The skin was then inverted, the lesion diameters were measured. The area of the lesion was calculated and expressed in square millimeters. Following diameter measurements, Evan's Blue dye was extracted from the skin tissue and the optical density was measured. Data are calculated against a spiked in Evan's Blue standard curve. […]
The extent of compound efficacy was quantitated by calculating both the overall skin spot area and the amount of Evans Blue dye permeating the skin. 20 Minutes post challenge with histamine, animals were euthanized, the lesion diameters were measured. […]

In the case of `Clc1cnc(N2C3CCC2CNC3)nc1Nc1ccc2[nH]ncc2c1` [Example 192, N-(2-(3,8-diazabicyclo[3.2.1]octan-8-yl)-5-chloropyrimidin-4-yl)-1H-indazol-5-amine], the “vascular permeability induced by histamine (Evan's Blue dye extravasation)” value is reported as “blocked”.
